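Growth conditions: 96-well plates. Treatment: test compound, 48 hours, 5 concentrations. Analysis: linear interpolation between bracketing concentrations; unreached endpoints set to highest concentration. TGI is the concentration that stops growth completely.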
Legend:
Assay in all cases: growth of human tumour cells (NCI), 48 h
[1] = system: TK-10 renal
[2] = system: HS 578T breast
[3] = system: NCI-H226 lung
[4] = system: DU-145 prostate
[5] = system: SF-268 CNS
[6] = system: MDA-N
[7] = system: SF-539 CNS
[8] = system: SNB-19 CNS
[9] = system: UACC-62 melanoma
[10] = system: IGROV1 ovarian
[11] = system: CCRF-CEM leukemia
[12] = system: NCI/ADR-RES ovarian
[13] = system: A498 renal
[14] = system: SN12C renal
[15] = system: OVCAR-5 ovarian
[16] = system: MDA-MB-435
[17] = system: SNB-75 CNS
[18] = system: SF-295 CNS
[19] = system: HOP-92 NSCLC
[20] = system: PC-3 prostate
[21] = system: NCI-H23 lung
[22] = system: MALME-3M melanoma
[23] = system: OVCAR-3 ovarian
[24] = system: UACC-257 melanoma
[25] = system: 786-0 renal
[26] = system: A549 NSCLC
[27] = system: RPMI-8226 leukemia
[28] = system: RXF 393 renal
[29] = system: U251 CNS
[30] = system: LOX IMVI melanoma
[31] = system: SK-OV-3 ovarian
[32] = system: HCC-2998 colon
[33] = system: ACHN renal
[34] = system: M14 melanoma
[35] = system: OVCAR-4 ovarian
[36] = system: HOP-62 NSCLC
[37] = system: BT-549 breast
[38] = system: UO-31 renal
[39] = system: OVCAR-8 ovarian
[40] = system: SW-620 colon
[41] = system: SK-MEL-5 melanoma
[42] = system: MDA-MB-231 breast
[43] = system: SK-MEL-2 melanoma
[44] = system: EKVX NSCLC
[45] = system: MOLT-4 leukemia
[46] = system: K-562 leukemia
[47] = system: CAKI-1 renal
[48] = system: NCI-H522 lung
[49] = system: SR leukemia
[50] = system: HT29 colon
[51] = system: MCF7 breast
[52] = system: COLO 205 colon
[53] = system: NCI-H460 lung
[54] = system: HCT-15 colon
[55] = system: HL-60(TB) leukemia
[56] = system: SK-MEL-28 melanoma
[57] = system: T-47D breast
[58] = system: KM12 colon
[59] = system: HCT-116 colon

O=S(=O)(O)c1c(Cl)c(Cl)c(O)c2ncccc12
TGI [1]: 27.4 µM
TGI [2]: 54.4 µM
TGI [3]: 64.3 µM
TGI [4]: 61.4 µM
TGI [5]: 13.8 µM
TGI [6]: 43.6 µM
TGI [7]: > 56.7 µM
TGI [8]: 44.1 µM
TGI [9]: 29.7 µM
TGI [10]: 16 µM
TGI [11]: 31.7 µM
TGI [12]: 49.7 µM
TGI [13]: 26 µM
TGI [14]: 40.8 µM
TGI [15]: 42 µM
TGI [16]: 30.5 µM
TGI [17]: 39.3 µM
TGI [18]: 33.2 µM
TGI [19]: 47.8 µM
TGI [20]: > 59.6 µM
TGI [21]: 29.6 µM
TGI [22]: 31.1 µM
TGI [23]: 42.3 µM
TGI [24]: 97.6 µM
TGI [25]: 21.1 µM
TGI [26]: 28.3 µM
TGI [27]: > 83.6 µM
TGI [28]: 44.5 µM
TGI [29]: 47.2 µM
TGI [30]: 7.99 µM
TGI [31]: 25.8 µM
TGI [32]: 31.4 µM
TGI [33]: 26.2 µM
TGI [34]: 27.1 µM
TGI [35]: 47.1 µM
TGI [36]: 17.6 µM
TGI [37]: 67.3 µM
TGI [38]: 22.7 µM
TGI [39]: 51.3 µM
TGI [40]: > 72.4 µM
TGI [41]: 28.6 µM
TGI [42]: > 93.1 µM
TGI [43]: 45 µM
TGI [44]: 41.6 µM
TGI [45]: 20.1 µM
TGI [46]: > 48.5 µM
TGI [47]: 65.4 µM
TGI [48]: 21.4 µM
TGI [49]: 27.6 µM
TGI [50]: 24 µM
TGI [51]: 21.6 µM
TGI [52]: 31.8 µM
TGI [53]: 25.5 µM
TGI [54]: 27.1 µM
TGI [55]: 4.75 µM
TGI [56]: 39.8 µM
TGI [57]: 22 µM
TGI [58]: 33.2 µM
TGI [59]: 16.6 µM

COc1ccc(COCC[C@H](C)OC2OC(CO[Si](C)(C)C(C)(C)C)C(O)C(O)C2O)cc1 (stereo partly specified)
TGI [1]: > 100 µM
TGI [2]: > 100 µM
TGI [3]: > 100 µM
TGI [4]: > 100 µM
TGI [5]: > 100 µM
TGI [6]: > 100 µM
TGI [7]: > 100 µM
TGI [8]: > 100 µM
TGI [9]: > 100 µM
TGI [10]: > 100 µM
TGI [11]: > 100 µM
TGI [12]: > 100 µM
TGI [13]: > 100 µM
TGI [14]: > 100 µM
TGI [15]: > 100 µM
TGI [16]: > 100 µM
TGI [17]: > 100 µM
TGI [18]: > 100 µM
TGI [19]: > 100 µM
TGI [20]: > 100 µM
TGI [21]: > 100 µM
TGI [22]: > 100 µM
TGI [23]: > 100 µM
TGI [24]: > 100 µM
TGI [25]: > 100 µM
TGI [26]: > 100 µM
TGI [27]: > 100 µM
TGI [28]: > 100 µM
TGI [29]: > 100 µM
TGI [30]: > 100 µM
TGI [31]: > 100 µM
TGI [32]: > 100 µM
TGI [33]: > 100 µM
TGI [34]: > 100 µM
TGI [35]: > 100 µM
TGI [36]: > 100 µM
TGI [37]: > 100 µM
TGI [38]: > 100 µM
TGI [39]: > 100 µM
TGI [40]: > 100 µM
TGI [41]: > 100 µM
TGI [42]: > 100 µM
TGI [43]: > 100 µM
TGI [44]: > 100 µM
TGI [45]: > 100 µM
TGI [46]: > 100 µM
TGI [47]: > 100 µM
TGI [48]: > 100 µM
TGI [49]: > 100 µM
TGI [50]: > 100 µM
TGI [51]: > 100 µM
TGI [52]: > 100 µM
TGI [53]: > 100 µM
TGI [54]: > 100 µM
TGI [55]: > 100 µM
TGI [56]: > 100 µM
TGI [57]: > 100 µM
TGI [58]: > 100 µM
TGI [59]: > 100 µM

C=CC(C)(C)NC(C(=O)N1CCC[C@H]1c1nc(-c2nc(C(=O)OCC=C(C)C)c(C)o2)c(C)o1)C(C)C (stereo partly specified)
TGI [1]: > 100 µM
TGI [2]: > 100 µM
TGI [3]: > 87.7 µM
TGI [4]: > 100 µM
TGI [5]: > 100 µM
TGI [6]: 56.2 µM
TGI [7]: > 68.7 µM
TGI [8]: > 100 µM
TGI [9]: > 60.9 µM
TGI [10]: > 100 µM
TGI [11]: > 100 µM
TGI [12]: > 100 µM
TGI [13]: > 100 µM
TGI [14]: > 72.2 µM
TGI [15]: > 100 µM
TGI [16]: > 72 µM
TGI [17]: > 100 µM
TGI [18]: > 74.8 µM
TGI [19]: > 100 µM
TGI [20]: > 100 µM
TGI [21]: > 100 µM
TGI [22]: > 100 µM
TGI [23]: > 100 µM
TGI [24]: > 100 µM
TGI [25]: > 100 µM
TGI [26]: > 100 µM
TGI [27]: > 100 µM
TGI [28]: > 91.4 µM
TGI [29]: > 78.1 µM
TGI [30]: > 74.5 µM
TGI [31]: > 100 µM
TGI [32]: > 100 µM
TGI [33]: > 68.1 µM
TGI [34]: > 100 µM
TGI [35]: > 100 µM
TGI [36]: > 100 µM
TGI [37]: > 100 µM
TGI [38]: > 65.1 µM
TGI [39]: > 100 µM
TGI [40]: > 100 µM
TGI [41]: > 72.7 µM
TGI [42]: > 100 µM
TGI [43]: > 73.4 µM
TGI [44]: > 90.1 µM
TGI [45]: > 100 µM
TGI [46]: > 100 µM
TGI [47]: 99.8 µM
TGI [48]: > 100 µM
TGI [49]: > 100 µM
TGI [50]: > 86.8 µM
TGI [51]: > 82.8 µM
TGI [52]: > 100 µM
TGI [53]: > 100 µM
TGI [54]: > 95.5 µM
TGI [55]: 71.6 µM
TGI [56]: > 100 µM
TGI [57]: > 100 µM
TGI [58]: > 90.6 µM
TGI [59]: > 100 µM

CC(C)N(CC(=O)O)CC(=O)O
TGI [1]: > 100 µM
TGI [2]: > 100 µM
TGI [3]: > 100 µM
TGI [4]: > 100 µM
TGI [5]: > 100 µM
TGI [6]: > 100 µM
TGI [7]: > 100 µM
TGI [8]: > 100 µM
TGI [9]: > 100 µM
TGI [10]: > 100 µM
TGI [11]: > 100 µM
TGI [12]: > 100 µM
TGI [13]: > 100 µM
TGI [14]: > 100 µM
TGI [15]: > 100 µM
TGI [16]: > 100 µM
TGI [17]: > 100 µM
TGI [18]: > 100 µM
TGI [19]: > 100 µM
TGI [20]: > 100 µM
TGI [21]: > 100 µM
TGI [22]: > 100 µM
TGI [23]: > 100 µM
TGI [24]: > 100 µM
TGI [25]: > 100 µM
TGI [26]: > 100 µM
TGI [27]: > 100 µM
TGI [28]: > 100 µM
TGI [29]: > 100 µM
TGI [30]: > 100 µM
TGI [31]: > 100 µM
TGI [32]: > 100 µM
TGI [33]: > 100 µM
TGI [34]: > 100 µM
TGI [35]: > 100 µM
TGI [36]: > 100 µM
TGI [37]: > 100 µM
TGI [38]: > 100 µM
TGI [39]: > 100 µM
TGI [40]: > 100 µM
TGI [41]: > 100 µM
TGI [42]: > 100 µM
TGI [43]: > 100 µM
TGI [44]: > 100 µM
TGI [45]: > 100 µM
TGI [46]: > 100 µM
TGI [47]: > 100 µM
TGI [48]: > 100 µM
TGI [49]: > 100 µM
TGI [50]: > 100 µM
TGI [51]: > 100 µM
TGI [52]: > 100 µM
TGI [53]: > 100 µM
TGI [54]: > 100 µM
TGI [55]: > 100 µM
TGI [56]: > 100 µM
TGI [57]: > 100 µM
TGI [58]: > 100 µM
TGI [59]: > 100 µM

— PubChem BioAssay (NCI)
